Experimental data published in patent publication US10172868B2, “Substituted quinazolines for inhibiting kinase activity” (NeuPharma, Inc., priority 2013, dated 2019).
pIC50: −log10 of the molar value.

What was measured:
[1] = target: EGFR (ErbB1) (Homo sapiens (Human), UniProt P00533); assay: Z'-LYTE kinase inhibition assay, EGFR; format: biochemical; conditions: for inhibition at 1 µM: read-out: % inhibition against EGFR (Compound at 1 μM); for inhibition at 0.041 µM: read-out: % inhibition against EGFR (Compound at 0.041 μM); for pIC50: read-out: IC50 against EGFR
In short: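 Z'-LYTE FRET assay run with 1.1-5.25 ng EGFR and 2 μM peptide substrate in 50 mM HEPES pH 7.5, 10 mM MgCl2, 2 mM MnCl2, 1 mM EGTA, 1 mM DTT, 0.01% BRIJ-35, 1% DMSO. Kinase reaction 60 min at room temperature, then 60 min development; IC50 from 10-point 3-fold titrations.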

[2] = target: EGFR (ErbB1) T790M L858R (Homo sapiens (Human), UniProt P00533, L858R/T790M); assay: Z'-LYTE kinase inhibition assay, EGFR L858R/T790M; format: biochemical; conditions: for inhibition at 1 µM: read-out: % inhibition against EGFR L858R/T790M (Compound at 1 μM); for inhibition at 0.0137 µM: read-out: % inhibition against EGFR L858R/T790M (Compound at 0.0137 μM); for pIC50: read-out: IC50 against EGFR L858R/T790M
In short: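 Z'-LYTE FRET peptide assay at 1% DMSO, 10-point 3-fold titrations; kinase/peptide mix in 50 mM HEPES pH 6.5, 0.01% BRIJ-35, 10 mM MgCl2, 1 mM EGTA, 0.02% NaN3. Kinase reaction ran 60 min at room temperature, followed by 60 min development and a fluorescence read. IC50 derived from the concentration series.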

[3] = tested on: H1975 cells; assay: Inhibition of cancer cell growth, MTT assay, H1975; conditions: Homo sapiens, NCI-H1975, 72 h, read-out: IC50 in H1975 cells
Experimental: (§1) Inhibition of cell growth by compounds was measured using MTT assay (Mosmann, T., Journal of Immunological Methods, 1983, 65, 55-63). Tumor cell lines were purchased from ATCC (American Type Culture Collection, Manassas, Va.). All cell lines were maintained in RPMI 1640 (Hyclone) supplemented with 10% fetal bovine serum (FBS, Hyclone), glutamine (2 mM, Hyclone), and antibiotics (penicillin 100 U/mL and streptomycin 50 μg/mL) at 37° C. in a humidified atmosphere of 5% CO2 in air. Taxol (as a positive control. Sigma) and compounds were dissolved in DMSO (Sigma), and the final concentration of DMSO in the medium was 1%. Tumor cells were plated in 96-well plates at densities of about 4000 cells/well of a 96-well plate and allowed to adhere/grow for 24 h. They were then treated with various concentrations of drug for 72 h, 3-(4,5-Dimethylthiazol-2-yl)-2,5-diphenyltetrazolium bromide (MTT, Sigma) was used to determine the number of viable cells at the time of compound addition and the number of cells remaining after 72 h compound exposure. The number of cells remaining after 72 h was compared to the number of viable cells at the time of compound addition by measuring the absorbance at 570 nm, allowing for the calculation of growth inhibition.
(§2) All concentrations of compounds were tested in triplicate and controls were averaged over 4 wells. IC50 was calculated by plotting the concentration of compound vs the percentage of inhibition in treated wells using GraphPad Prism 5.

[4] = tested on: HCC827 cells; assay: cells; conditions: Homo sapiens, HCC827, 72 h, read-out: IC50 in HCC827 cells
[5] = target: FGFR1 (Homo sapiens (Human), UniProt P11362); assay: Z'-LYTE kinase inhibition assay, FGFR1; format: biochemical; conditions: compound at 0.041 μM; read-out: % inhibition against FGFR1
Experimental: Inhibitory activities of compounds against BTK, EGFR and EGFR mutants (EGFR L858R, EGFR T790M, EGFR L858R/T790M), FGFR1, FGFR2, JAK2, JAK3 and KDR were measured by Invitrogen using Z'-LYTE® Method as briefly described in the following.
Test Compounds are screened in 1% DMSO (final) in the well. For 10 point titrations, 3-fold serial dilutions are conducted from the starting concentration. All ATP Solutions are diluted to a 4× working concentration in Kinase Buffer (50 mM HEPES pH 7.5, 0.01% BRIJ-35, 10 mM MgCl2, 1 mM EGTA). Peptide/Kinase Mixtures are diluted to a 2× working concentration in the appropriate Kinase Buffers as described below.
(v) Peptide/Kinase Mixtures for Measurement of FGFR1:
The 2×FGFR1/Tyr 04 mixture is prepared in 50 mM HEPES pH 7.5, 0.01% BRIJ-35, 10 mM MgCl2, 4 mM MnCl2, 1 mM EGTA, 2 mM DTT. The final 10 μL Kinase Reaction consists of 0.41-3.5 ng FGFR1 and 2 μM Tyr 04 in 50 mM HEPES pH 7.5, 0.01% BRIJ-35, 10 mM MgCl2, 2 mM MnCl2, 1 mM EGTA, 1 mM DTT. After the 1 hour Kinase Reaction incubation, 5 μL of a 1:64 dilution of Development Reagent B is added.
Reaction starts by 30-second shaking of mixture consisting of 2.5 μL 4× test compound, […] 2× kinase reaction mixture and 2.5 μL 4×ATP Solution on Bar-coded Corning, low volume NBS, black 384-well plate (Corning Cat. #3676). Then the mixture is incubated for 60-minute at room temperature for the kinase reaction, followed by addition of 5 μL of a 1:1024 dilution of development reagent A and 30-second plate shake. The mixture is then incubated for another 60-minute at room temperature for development reaction. Finally fluorescence is read by plate reader.
To determine IC50 of a compound against EGFR, EGFR mutant and other kinases, a series of concentrations of the compound were tested for the inhibition. […] The scale utilized in Table 4 is as follows: +++ less than 100 nM, ++ 100-500 nM and + greater than 500 nM.

[6] = tested on: A431 cells; assay: cells; conditions: Homo sapiens, A-431, 72 h, read-out: IC50 in A431 cells
[7] = tested on: H1975 tumor xenografts; assay: Inhibition of tumor growth in H1975 xenograft model; format: in vivo, BALB/c female nude mice; conditions: Table 7 study, 60 mg/kg, Oral, QD x 14; for Tumor Volume Pre-treatment: baseline before treatment
Experimental: H1975 cells were implanted in BALB/c female nude mice and grown as tumor xenografts. When tumors achieved 120-200 mm^3, mice were assigned into treatment and control groups using randomized block design based upon their tumor volumes. Each group contained 6 tumor-bearing mice. Tumors were measured twice weekly in two dimensions using a caliper, and the tumor volume was calculated from two-dimensional measurements using the equation V=0.5×a×b^2 where a and b are the long and short diameters of the tumor, respectively. Relative tumor volume (RTV) was defined as TVt/TVi, the ratio of the volume on a given day (TVt) and the volume at the start of treatment (TVi). Relative tumor growth rate (T/C) was defined as RTVT/RTVC, the ratio of relative tumor volume of treatment group (RTVT) and relative tumor volume of control group (RTVC) on a given day.

[8] = tested on: H3255 cells; assay: Inhibition of cancer cell growth, MTT assay, H3255; conditions: Homo sapiens, NCI-H3255, 72 h, read-out: IC50 in H3255 cells
[9] = tested on: H1299 cells; assay: Inhibition of cancer cell growth, MTT assay, H1299; conditions: Homo sapiens, NCI-H1299, 72 h, read-out: IC50 in H1299 cells
Experimental: as §1, §2

[10] = target: BTK (Homo sapiens (Human), UniProt Q06187); assay: Z'-LYTE kinase inhibition assay, BTK; format: biochemical; conditions: read-out: IC50 against BTK
In short: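 Z'-LYTE FRET assay with Tyr 01 peptide in 50 mM HEPES pH 7.5, 10 mM MgCl2, 1 mM EGTA, 0.01% BRIJ-35. Compounds in 1% DMSO were tested as 10-point, 3-fold titrations.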

Chain of EGFR (ErbB1) T790M L858R (P00533 25-1210 T790M/L858R): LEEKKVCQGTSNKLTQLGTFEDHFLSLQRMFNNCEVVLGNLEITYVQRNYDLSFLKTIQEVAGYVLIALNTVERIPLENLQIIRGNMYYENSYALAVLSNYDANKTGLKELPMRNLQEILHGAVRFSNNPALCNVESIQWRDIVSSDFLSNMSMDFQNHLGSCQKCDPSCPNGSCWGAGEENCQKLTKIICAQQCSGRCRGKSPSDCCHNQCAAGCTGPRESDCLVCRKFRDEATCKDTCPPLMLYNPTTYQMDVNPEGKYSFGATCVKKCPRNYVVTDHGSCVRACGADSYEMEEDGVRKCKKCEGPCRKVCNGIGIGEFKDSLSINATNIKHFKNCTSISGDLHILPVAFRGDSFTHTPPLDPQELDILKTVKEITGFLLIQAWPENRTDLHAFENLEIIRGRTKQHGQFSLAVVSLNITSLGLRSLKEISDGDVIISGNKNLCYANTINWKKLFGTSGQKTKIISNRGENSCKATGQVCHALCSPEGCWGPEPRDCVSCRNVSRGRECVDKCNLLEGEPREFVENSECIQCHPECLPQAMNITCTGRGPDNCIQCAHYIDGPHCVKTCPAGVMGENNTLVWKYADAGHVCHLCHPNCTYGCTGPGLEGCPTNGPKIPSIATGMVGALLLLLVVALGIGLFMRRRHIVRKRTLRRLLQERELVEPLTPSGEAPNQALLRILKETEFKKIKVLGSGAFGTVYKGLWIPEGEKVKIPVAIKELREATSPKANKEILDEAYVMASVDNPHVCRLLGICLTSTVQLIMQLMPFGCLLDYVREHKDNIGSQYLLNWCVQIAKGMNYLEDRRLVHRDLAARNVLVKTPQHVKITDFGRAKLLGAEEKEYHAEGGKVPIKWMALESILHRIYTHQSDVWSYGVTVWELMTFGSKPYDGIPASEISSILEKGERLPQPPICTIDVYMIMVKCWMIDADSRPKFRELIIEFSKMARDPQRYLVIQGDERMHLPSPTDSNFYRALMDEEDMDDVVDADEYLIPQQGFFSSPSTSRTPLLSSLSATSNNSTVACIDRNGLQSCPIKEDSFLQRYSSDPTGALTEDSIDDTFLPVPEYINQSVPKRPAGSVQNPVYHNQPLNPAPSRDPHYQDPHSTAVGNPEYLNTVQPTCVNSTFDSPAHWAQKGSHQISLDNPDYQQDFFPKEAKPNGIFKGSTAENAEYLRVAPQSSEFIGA
Chain of EGFR (ErbB1) (P00533 25-1210): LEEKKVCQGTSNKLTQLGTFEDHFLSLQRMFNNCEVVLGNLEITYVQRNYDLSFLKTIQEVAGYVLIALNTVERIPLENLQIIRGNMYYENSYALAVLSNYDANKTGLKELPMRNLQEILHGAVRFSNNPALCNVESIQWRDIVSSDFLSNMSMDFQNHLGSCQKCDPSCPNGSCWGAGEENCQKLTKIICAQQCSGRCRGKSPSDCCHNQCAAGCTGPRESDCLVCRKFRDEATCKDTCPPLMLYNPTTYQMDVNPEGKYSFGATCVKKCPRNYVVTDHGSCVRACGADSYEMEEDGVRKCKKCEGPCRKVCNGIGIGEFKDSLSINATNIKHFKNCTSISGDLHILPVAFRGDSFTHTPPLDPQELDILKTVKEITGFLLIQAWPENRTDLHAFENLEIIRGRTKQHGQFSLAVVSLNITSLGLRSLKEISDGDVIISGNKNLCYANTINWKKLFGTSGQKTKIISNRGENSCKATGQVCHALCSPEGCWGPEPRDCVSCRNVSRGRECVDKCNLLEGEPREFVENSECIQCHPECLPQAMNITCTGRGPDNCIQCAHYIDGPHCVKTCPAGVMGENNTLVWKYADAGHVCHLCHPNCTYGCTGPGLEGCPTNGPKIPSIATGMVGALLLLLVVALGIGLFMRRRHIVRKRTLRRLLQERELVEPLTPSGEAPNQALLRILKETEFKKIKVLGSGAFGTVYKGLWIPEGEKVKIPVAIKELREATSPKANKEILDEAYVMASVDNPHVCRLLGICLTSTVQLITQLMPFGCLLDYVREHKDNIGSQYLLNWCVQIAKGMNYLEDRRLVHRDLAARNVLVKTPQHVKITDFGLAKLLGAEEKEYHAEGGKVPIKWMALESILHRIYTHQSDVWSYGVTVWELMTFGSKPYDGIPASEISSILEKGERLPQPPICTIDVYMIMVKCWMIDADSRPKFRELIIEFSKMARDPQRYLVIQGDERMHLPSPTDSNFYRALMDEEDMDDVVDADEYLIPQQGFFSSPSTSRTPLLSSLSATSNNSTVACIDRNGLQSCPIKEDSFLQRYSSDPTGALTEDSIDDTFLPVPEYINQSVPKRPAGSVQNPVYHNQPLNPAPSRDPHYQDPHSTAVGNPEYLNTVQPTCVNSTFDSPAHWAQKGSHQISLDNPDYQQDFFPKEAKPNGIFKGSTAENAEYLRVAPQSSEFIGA
Chain of FGFR1 (P11362 22-822): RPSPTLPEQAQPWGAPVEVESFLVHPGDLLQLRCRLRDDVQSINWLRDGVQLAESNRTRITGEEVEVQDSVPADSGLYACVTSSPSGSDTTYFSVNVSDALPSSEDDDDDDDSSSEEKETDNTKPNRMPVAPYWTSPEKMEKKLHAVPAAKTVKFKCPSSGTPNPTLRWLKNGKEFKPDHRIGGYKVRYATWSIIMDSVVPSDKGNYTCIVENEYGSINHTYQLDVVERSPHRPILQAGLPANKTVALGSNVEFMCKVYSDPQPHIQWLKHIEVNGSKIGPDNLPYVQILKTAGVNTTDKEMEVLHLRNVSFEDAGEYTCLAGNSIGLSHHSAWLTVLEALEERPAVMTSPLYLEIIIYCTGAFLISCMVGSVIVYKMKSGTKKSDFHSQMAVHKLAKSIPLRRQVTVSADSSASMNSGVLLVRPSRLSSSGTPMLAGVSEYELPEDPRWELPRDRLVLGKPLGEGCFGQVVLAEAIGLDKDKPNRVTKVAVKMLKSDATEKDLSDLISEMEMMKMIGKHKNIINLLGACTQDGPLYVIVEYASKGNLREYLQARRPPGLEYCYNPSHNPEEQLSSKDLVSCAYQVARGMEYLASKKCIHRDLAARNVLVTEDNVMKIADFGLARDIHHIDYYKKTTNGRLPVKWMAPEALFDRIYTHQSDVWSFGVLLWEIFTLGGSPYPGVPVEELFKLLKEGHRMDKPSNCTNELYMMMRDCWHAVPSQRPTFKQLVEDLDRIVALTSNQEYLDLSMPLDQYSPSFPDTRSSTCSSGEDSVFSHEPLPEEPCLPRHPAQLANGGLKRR
Chain of BTK (Q06187 whole entry): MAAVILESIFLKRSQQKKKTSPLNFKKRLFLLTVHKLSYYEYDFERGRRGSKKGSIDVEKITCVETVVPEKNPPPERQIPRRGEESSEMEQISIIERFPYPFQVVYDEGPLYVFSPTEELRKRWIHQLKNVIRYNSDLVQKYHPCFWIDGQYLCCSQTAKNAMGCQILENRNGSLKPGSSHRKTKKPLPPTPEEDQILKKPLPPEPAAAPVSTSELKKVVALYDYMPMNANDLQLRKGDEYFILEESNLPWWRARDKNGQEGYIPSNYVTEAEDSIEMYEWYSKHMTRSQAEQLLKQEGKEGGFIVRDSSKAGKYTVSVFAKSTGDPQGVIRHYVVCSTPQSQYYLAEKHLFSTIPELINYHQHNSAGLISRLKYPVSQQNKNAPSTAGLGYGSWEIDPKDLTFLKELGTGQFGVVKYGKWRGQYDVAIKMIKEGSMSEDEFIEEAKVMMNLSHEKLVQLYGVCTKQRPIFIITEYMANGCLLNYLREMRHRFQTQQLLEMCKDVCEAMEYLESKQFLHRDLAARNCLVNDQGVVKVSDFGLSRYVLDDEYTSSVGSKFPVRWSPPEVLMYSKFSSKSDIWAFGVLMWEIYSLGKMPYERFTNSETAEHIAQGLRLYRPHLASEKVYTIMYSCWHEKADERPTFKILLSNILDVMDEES

inhibition at 1 µM [2]	pIC50 [3]	pIC50 [4]	inhibition at 0.041 µM [5]	inhibition at 0.041 µM [1]	inhibition at 0.0137 µM [2]	pIC50 [6]	pIC50 [9]	Compound	inhibition at 1 µM [1]	pIC50 [2]	T/C (relative tumor growth rate) [7]	Tumor Volume Post-treatment [7]	Tumor Volume Pre-treatment [7]	pIC50 [8]	pIC50 [1]	pIC50 [10]
> 50%	< 6.30	< 6.30	> 50%					Fc1ccccc1-c1cccc2cnc(Nc3ccc(N4CCNCC4)cc3)nc12 [Example C031, 8-(2-fluorophenyl)-N-(4-(piperazin-1-yl)phenyl)quinazolin-2-amine]	> 50%							
> 50%	< 6.30	6.30 to 7.00	> 50%					Fc1cccc(-c2cccc3cnc(Nc4ccc(N5CCNCC5)cc4)nc23)c1 [Example C027, 8-(3-fluorophenyl)-N-(4-(piperazin-1-yl)phenyl)quinazolin-2-amine]								
	> 7.00		> 50%	> 50%	> 50%	6.30 to 7.00		C=CC(=O)Nc1cccc(-c2cccc3cnc(Nc4ccc(N5CCN(C)CC5)c(OC)c4)nc23)c1 [Example C075, N-(3-(2-((3-methoxy-4-(4-methylpiperazin-1-yl)phenyl)amino)quinazolin-8-yl)phenyl)acrylamide]		> 7.00						
	> 7.00	> 7.00				6.30 to 7.00		C=CC(=O)Nc1cccc(-c2cccc3cnc(Nc4ccc(N5CCN(C)CC5)c(F)c4F)nc23)c1 [Example C156, N-(3-(2-((2,3-difluoro-4-(4-methylpiperazin-1-yl)phenyl)amino)quinazolin-8-yl)phenyl)acrylamide]		> 7.00	36.8%	594 mm3	232 mm3	< 6.30	> 7.00	
> 50%	< 6.30	< 6.30	> 50%					Clc1cccc(-c2cccc3cnc(Nc4ccc(N5CCNCC5)cc4)nc23)c1 [Example C025, 8-(3-chlorophenyl)-N-(4-(piperazin-1-yl)phenyl)quinazolin-2-amine]								
	> 7.00			> 50%	> 50%	< 6.30	< 6.30	C=CC(=O)Nc1cccc(-c2cccc3cnc(Nc4cnc(N5CCN(C)CC5)nc4)nc23)c1 [Example C046, N-(3-(2-((2-(4-methylpiperazin-1-yl)pyrimidin-5-yl)amino)quinazolin-8-yl)phenyl)acrylamide]								
	> 7.00	> 7.00				< 6.30	< 6.30	C=CC(=O)Nc1cccc(-c2c(C)ccc3cnc(Nc4ccc(N5CCN(C(C)=O)CC5)cc4)nc23)c1 [Example C035, N-(3-(2-((4-(4-acetylpiperazin-1-yl)phenyl)amino)-7-methylquinazolin-8-yl)phenyl)acrylamide]								
	6.30 to 7.00	> 7.00					< 6.30	C=CC(=O)Nc1cncc(-c2cccc3cnc(Nc4ccc(N5CCN(C(C)=O)CC5)cc4)nc23)c1 [Example C039, N-(5-(2-((4-(4-acetylpiperazin-1-yl)phenyl)amino)quinazolin-8-yl)pyridin-3-yl)acrylamide]								
> 50%	< 6.30	< 6.30	> 50%					CCC(=O)Nc1cccc(-c2cccc3cnc(Nc4ccc(N5CCN(C)CC5)cc4)nc23)c1 [Example C020, N-(3-(2-((4-(4-methylpiperazin-1-yl)phenyl)amino)quinazolin-8-yl)phenyl)propionamide]								
	> 7.00			> 50%	> 50%	< 6.30	< 6.30	C=CC(=O)Nc1cccc(-c2c(F)ccc3cnc(Nc4ccc(N5CCN(CCF)CC5)cc4)nc23)c1 [Example C088, N-(3-(7-fluoro-2-((4-(4-(2-fluoroethyl)piperazin-1-yl)phenyl)amino)quinazolin-8-yl)phenyl)acrylamide]		> 7.00				< 6.30		
	6.30 to 7.00		< 50%	< 50%	> 50%	< 6.30		C=CC(=O)Nc1cccc(-c2cccc3cnc(Nc4ccc(N5CCN(C(C)=O)CC5)cc4)nc23)c1Cl [Example C051, N-(3-(2-((4-(4-acetylpiperazin-1-yl)phenyl)amino)quinazolin-8-yl)-2-chlorophenyl)acrylamide]								

Compound	inhibition at 1 µM [2]	pIC50 [3]	pIC50 [4]	inhibition at 0.041 µM [5]	inhibition at 0.041 µM [1]	inhibition at 0.0137 µM [2]	pIC50 [6]	pIC50 [9]	inhibition at 1 µM [1]	pIC50 [2]	T/C (relative tumor growth rate) [7]	Tumor Volume Post-treatment [7]	Tumor Volume Pre-treatment [7]	pIC50 [8]	pIC50 [1]	pIC50 [10]
C=CC(=O)Nc1cccc(-c2c(C)ccc3cnc(Nc4ccc(N5CCN(C)CC5)cc4)nc23)c1 [Example C034, N-(3-(7-methyl-2-((4-(4-methylpiperazin-1-yl)phenyl)amino)quinazolin-8-yl)phenyl)acrylamide]		> 7.00	> 7.00		> 50%		< 6.30	< 6.30	> 50%	> 7.00					> 7.00	
C=CC(=O)Nc1cccc(-c2cccc3cnc(Nc4ccc(N5CCN(CCO)CC5)c(F)c4F)nc23)c1 [Example C151, N-(3-(2-((2,3-difluoro-4-(4-(2-hydroxyethyl)piperazin-1-yl)phenyl)amino)quinazolin-8-yl)phenyl)acrylamide]		> 7.00	> 7.00		< 50%		6.30 to 7.00			> 7.00	28.6%	462 mm3	229 mm3	< 6.30	> 7.00	> 7.00
C=CC(=O)Nc1cccc(-c2cccc3cnc(Nc4ccc(N5CCN(CCO)CC5)cc4F)nc23)c1 [Example C147, N-(3-(2-((2-fluoro-4-(4-(2-hydroxyethyl)piperazin-1-yl)phenyl)amino)quinazolin-8-yl)phenyl)acrylamide]		> 7.00	> 7.00		< 50%		6.30 to 7.00			> 7.00	55.7%	898 mm3	240 mm3	< 6.30	> 7.00	> 7.00
